This is an account of results in patent US20250262201A1, “COMPOUNDS AND METHODS USEFUL FOR STABILIZING PHENYLALANINE HYDROXYLASE MUTATIONS” (Agios Pharmaceuticals, Inc., priority 2022, published 2025).

Read-outs that look alike come from different tables or passages of the source.

The target in this experiment is T1, human PAH with the R408W mutation (Homo sapiens, UniProt P00439, R408W).
T1 construct: expressed in transfected cells
T1 sequence (P00439 1-452 R408W): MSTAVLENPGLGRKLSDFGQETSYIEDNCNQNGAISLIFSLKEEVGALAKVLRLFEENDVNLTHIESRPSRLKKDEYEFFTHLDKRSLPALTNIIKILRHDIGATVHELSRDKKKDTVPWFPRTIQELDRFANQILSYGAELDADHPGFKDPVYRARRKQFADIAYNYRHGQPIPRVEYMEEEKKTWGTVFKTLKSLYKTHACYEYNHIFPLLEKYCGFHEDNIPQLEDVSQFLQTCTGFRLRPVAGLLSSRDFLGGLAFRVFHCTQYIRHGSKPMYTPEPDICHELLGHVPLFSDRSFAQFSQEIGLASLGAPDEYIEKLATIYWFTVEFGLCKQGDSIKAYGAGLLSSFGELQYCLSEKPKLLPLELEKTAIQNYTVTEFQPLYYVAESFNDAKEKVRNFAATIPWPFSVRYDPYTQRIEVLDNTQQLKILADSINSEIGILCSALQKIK
Description: Cell Based Phenylalanine Flux Assay. Further details: scale not given here. To be noted: 13C-Tyrosine by LC-MS, average where tested multiple times.

Where [1] appears, read: A375 R408W cells, 24 hrs with compound, then 20 μM sepiapterin and 800 μM 13C9,15N-Phenylalanine for 4 hours.
Setting [2] is: A375 cells expressing human R408W PAH, 24 hrs compound incubation, read-out: AC50.
[3] abbreviates: A375 R408W cells, 24 hrs with compound, then 20 μM sepiapterin and 800 μM 13C9,15N-Phenylalanine for 4 hours, read-out: AC50.

In the case of `O=C(c1oc(N2CCOCC2)nc1C(F)F)N1CCc2[nH]cnc2C1c1ncc2ccccc2n1` (centres unmarked), the half-maximal activity concentration (AC50) (as a rule, the concentration giving half of the maximal activity seen) under setting [1] is “E, E”. Regarding `O=C(c1oc(-c2ccccn2)nc1C(F)F)N1CCc2[nH]cnc2C1c1ccc2ccccc2n1` (stereo in doubt) [Example 65, (R)-(4-(difluoromethyl)-2-(pyridin-2-yl)oxazol-5-yl)(4-(quinolin-2-yl)-6,7-dihydro-1H-imidazo[4,5-c]pyridin-5(4H)-yl)methanone], the AC50 under setting [2] was less than 500 nM. Still for that read-out and setting: for `Cc1nn(C)cc1-c1nnc(C(=O)N2CCc3[nH]cnc3[C@H]2c2ncc3ccccc3n2)o1` [Example 200, (S)-(5-(1,3-dimethyl-1H-pyrazol-4-yl)-1,3,4-oxadiazol-2-yl)(4-(quinazolin-2-yl)-6,7-dihydro-1H-imidazo[4,5-c]pyridin-5(4H)-yl)methanone] the value was less than 500 nM. For the molecule `O=C(CCc1nc2ccccc2o1)N1CCc2[nH]cnc2C1c1cn2ccccc2n1` (centres unmarked), the AC50 under setting [3] is 1000 to 5000 nM. Take `FC(F)(F)c1cnc(N2CCc3[nH]cnc3C2c2ccc3ccccc3n2)nc1` (stereo in doubt) [Example 29, (R)-2-(5-(5-(trifluoromethyl)pyrimidin-2-yl)-4,5,6,7-tetrahydro-1H-imidazo[4,5-c]pyridin-4-yl)quinoline]: under setting [2], the AC50 was less than 500 nM. For the molecule `Cn1cnc(-c2nc(C(F)F)c(C(=O)N3CCc4[nH]cnc4C3c3ncc4ccccc4n3)o2)c1` (centres unmarked), under setting [1], the AC50 entry is “E, E”.

On to `Cc1nc(C(C)(C)O)oc1C(=O)N1C[C@H](C)c2[nH]cnc2[C@@H]1c1cc2ccccc2cn1` [Example 390, (2-(2-hydroxypropan-2-yl)-4-methyloxazol-5-yl)((4S,7S)-4-(isoquinolin-3-yl)-7-methyl-6,7-dihydro-1H-imidazo[4,5-c]pyridin-5(4H)-yl)methanone], for which, under setting [2], the AC50 is more than 5000 nM.

On to `O=C([C@@H]1CC1(F)F)N1CCc2[nH]cnc2C1c1ccc2ccccc2n1` (stereo in doubt) [Example 50, ((S)-2,2-difluorocyclopropyl)((S)-4-(quinolin-2-yl)-6,7-dihydro-1H-imidazo[4,5-c]pyridin-5(4H)-yl)methanone], for which the AC50 under setting [2] was more than 5000 nM.

For `CC1CN(C(=O)c2nnc(N3CCOCC3)o2)C(c2cc3ccccc3cn2)c2nc[nH]c21` (centres unmarked), the half-maximal activity concentration (AC50) under setting [3] is more than 5000 nM.

As to `O=C(c1nnc(-c2cnn(S(=O)(=O)C3CC3)c2)o1)N1CCc2[nH]cnc2[C@H]1c1cc2ccccc2cn1`, the half-maximal activity concentration (AC50) under setting [3] was more than 5000 nM. Still for that read-out and setting: the value for `Cc1nc(N(C)C)oc1C(=O)N1CCc2[nH]cnc2[C@H]1c1ccc2ccccc2n1` (single isomer, unassigned) was more than 5000 nM. For `O=C(c1nnc(-c2ccc(F)c(F)c2)o1)N1CCc2[nH]cnc2C1c1ccc2ccccc2n1` (stereo in doubt) [Example 69, (R)-(5-(3,4-difluorophenyl)-1,3,4-oxadiazol-2-yl)(4-(quinolin-2-yl)-6,7-dihydro-1H-imidazo[4,5-c]pyridin-5(4H)-yl)methanone], the AC50 under setting [2] is 500 to 1000 nM. On the same count and under the same terms, the value for `CC(C)(O)c1nc(Cl)c(C(=O)N2CCc3[nH]cnc3C2c2ccc3ccccc3n2)o1` (stereo in doubt) [Example 114, (S)-(4-chloro-2-(2-hydroxypropan-2-yl)oxazol-5-yl)(4-(quinolin-2-yl)-6,7-dihydro-1H-imidazo[4,5-c]pyridin-5(4H)-yl)methanone] was more than 5000 nM. The same measure, in the same setting: for `N#Cc1ncoc1C(=O)N1CCc2[nH]cnc2[C@H]1c1cc2ccccc2cn1` [Example 517, (R)-5-(4-(isoquinolin-3-yl)-4,5,6,7-tetrahydro-1H-imidazo[4,5-c]pyridine-5-carbonyl)oxazole-4-carbonitrile] the value was less than 500 nM. As for `O=C(Cc1nc(C(F)(F)F)cs1)N1CCc2[nH]cnc2C1c1cn2ccccc2n1` (centres unmarked), under setting [3], the half-maximal activity concentration (AC50) fell in the range of 1000 to 5000 nM.

For `O=C(c1nsc2ccccc12)N1CCc2[nH]cnc2[C@H]1c1cc2ccccc2cn1` [Example 358, (R)-benzo[d]isothiazol-3-yl(4-(isoquinolin-3-yl)-6,7-dihydro-1H-imidazo[4,5-c]pyridin-5(4H)-yl)methanone], the AC50 under setting [2] is less than 500 nM. Turning to `COCc1ncc(C(=O)N2CCc3[nH]cnc3[C@@H]2c2ccc3ccccc3n2)o1` (single isomer, unassigned), under setting [3], the AC50 is 1000 to 5000 nM. For the molecule `Cc1nc(-c2ccccn2)oc1C(=O)N1C[C@@H](C)c2[nH]cnc2[C@H]1c1cc2ccccc2cn1` [Example 406, [(4R,7R)-4-(3-isoquinolyl)-7-methyl-1,4,6,7-tetrahydroimidazo[4,5-c]pyridin-5-yl]-[4-methyl-2-(2-pyridyl)oxazol-5-yl]methanone], the AC50 under setting [2] was less than 500 nM.

As for `C[C@@H](O)c1nc(C(F)F)c(C(=O)N2CCc3[nH]cnc3C2c2ccc3ccccc3n2)o1` (stereo in doubt) [Example 120, (4-(difluoromethyl)-2-((R)-1-hydroxyethyl)oxazol-5-yl)((R)-4-(quinolin-2-yl)-6,7-dihydro-1H-imidazo[4,5-c]pyridin-5(4H)-yl)methanone], under setting [2], the AC50 was less than 500 nM. Same read-out and setting: the value for `CC(C)(C)c1nnc(C(=O)N2CCc3[nH]cnc3[C@H]2c2ncc3ccccc3n2)o1` [Example 201, (S)-(5-(tert-butyl)-1,3,4-oxadiazol-2-yl)(4-(quinazolin-2-yl)-6,7-dihydro-1H-imidazo[4,5-c]pyridin-5(4H)-yl)methanone] was less than 500 nM. Consider `CC1CN(C(=O)c2oc(C(C)(C)O)nc2C(F)(F)F)C(c2cc3ccccc3cn2)c2nc[nH]c21` [(4S, 7S) diastereomer of (2-(2-hydroxypropan-2-yl)-4-(triflu], for which the AC50 entry under setting [1] is listed as “E, E”. For `Cc1cc(-c2nnc(C(=O)N3CCc4[nH]cnc4[C@H]3c3cc4ccccc4cn3)o2)nn1C` [Example 472, (R)-(5-(1,5-dimethyl-1H-pyrazol-3-yl)-1,3,4-oxadiazol-2-yl)(4-(isoquinolin-3-yl)-6,7-dihydro-1H-imidazo[4,5-c]pyridin-5(4H)-yl)methanone], the AC50 under setting [2] is less than 500 nM. The same measure, in the same setting: the value for `Cn1cnc(-c2nnc(C(=O)N3CCc4[nH]cnc4[C@H]3c3ncc4ccccc4n3)o2)c1` [Example 197, (S)-(5-(1-methyl-1H-imidazol-4-yl)-1,3,4-oxadiazol-2-yl)(4-(quinazolin-2-yl)-6,7-dihydro-1H-imidazo[4,5-c]pyridin-5(4H)-yl)methanone] was 500 to 1000 nM. Turning to `O=C(CCc1nccs1)N1CCc2[nH]cnc2C1c1cn2ccccc2n1` (centres unmarked), the AC50 under setting [3] lay within 1000 to 5000 nM. On to `Cn1cc(-c2nc(C(F)F)c(C(=O)N3CCc4[nH]cnc4C3c3ncc4ccccc4n3)o2)cn1` (centres unmarked), for which, under setting [1], the AC50 entry is given as “E, E”. With `O=C(c1nnc(-c2ccc(C(F)(F)F)cn2)o1)N1CCc2[nH]cnc2C1c1ccc2ccccc2n1` (centres unmarked), the AC50 under setting [3] was more than 5000 nM. Same read-out and setting: the value for `O=C(Cc1ccccn1)N1CCc2[nH]cnc2C1c1cn2ccccc2n1` (centres unmarked) was more than 5000 nM. Regarding `CC(O)c1nc(Br)c(C(=O)N2CCc3[nH]cnc3[C@H]2c2ccc3ccccc3n2)o1` (single isomer, unassigned) [Example 134], the AC50 under setting [2] is less than 500 nM.

For the molecule `O=C(c1cnco1)N1CCc2[nH]cnc2[C@H]1c1cc2ccccc2cn1` [Example 320, (R)-(4-(isoquinolin-3-yl)-6,7-dihydro-1H-imidazo[4,5-c]pyridin-5(4H)-yl)(oxazol-5-yl)methanone], the AC50 under setting [2] was less than 500 nM. In the case of `CC(F)(F)c1ncc(C(=O)N2CCc3[nH]cnc3[C@H]2c2cn3ccccc3n2)s1` (single isomer, unassigned) [Example 236], the AC50 under setting [2] was 1000 to 5000 nM. On the same count and under the same terms, for `O=C(c1nnc(-c2ccncc2)o1)N1CCc2[nH]cnc2[C@@H]1c1ncc2ccccc2n1` [Example 180, (R)-(5-(pyridin-4-yl)-1,3,4-oxadiazol-2-yl)(4-(quinazolin-2-yl)-6,7-dihydro-1H-imidazo[4,5-c]pyridin-5(4H)-yl)methanone] the value was more than 5000 nM; for `O=C(c1nnc(C2CC2)o1)N1CCc2[nH]cnc2[C@@H]1c1ncc2ccccc2n1` [Example 140, (R)-(5-cyclopropyl-1,3,4-oxadiazol-2-yl)(4-(quinazolin-2-yl)-6,7-dihydro-1H-imidazo[4,5-c]pyridin-5(4H)-yl)methanone], more than 5000 nM; for `O=C(c1nnc(-c2cnn(CC(F)(F)F)c2)o1)N1CCc2[nH]cnc2[C@@H]1c1ccc2ccccc2n1` (single isomer, unassigned) [Example 68], more than 5000 nM. Consider `Cc1nnc(C(=O)N2CCc3[nH]cnc3[C@H]2c2cc3ccccc3cn2)s1` [Example 361, (R)-(4-(isoquinolin-3-yl)-6,7-dihydro-1H-imidazo[4,5-c]pyridin-5(4H)-yl)(5-methyl-1,3,4-thiadiazol-2-yl)methanone], for which the AC50 under setting [2] fell in the range of 500 to 1000 nM.

For `O=C(c1cnn(-c2ccccn2)c1)N1CCc2[nH]cnc2C1c1ccc2ccccc2n1` (centres unmarked), the AC50 under setting [3] lay in the range of 1000 to 5000 nM. For `C[C@H]1CN(C(=O)c2cnc(-c3ccccn3)o2)[C@H](c2cc3ccccc3cn2)c2nc[nH]c21` [Example 381, ((4R,7S)-4-(isoquinolin-3-yl)-7-methyl-6,7-dihydro-1H-imidazo[4,5-c]pyridin-5(4H)-yl)(2-(pyridin-2-yl)oxazol-5-yl)methanone], under setting [2], the AC50 was in the range of 1000 to 5000 nM. For the molecule `CN1CCN(c2nnc(C(=O)N3CCc4[nH]cnc4C3c3cn4ccccc4n3)o2)CC1` (centres unmarked), under setting [3], the AC50 is more than 5000 nM. On the same count and under the same terms, the value for `FC(F)c1nnc(N2CCc3[nH]cnc3C2c2ccc3ccccc3n2)o1` (centres unmarked) was 1000 to 5000 nM.
